{"source": "patent US9149038B2", "about": "“4-amino-6-(heterocyclic)picolinates and 6-amino-2-(heterocyclic)pyrimidine-4-carboxylates and their use as herbicides” (Dow AgroSciences LLC, priority 2013, dated 2015)", "test_system": "Direct Seeded Rice and weed species", "assay": "Postemergence herbicidal activity in direct seeded rice, visual rating after 20-22 days and probit GR20/GR50/GR80/GR90 (Table 14)", "assay_type": "in vivo", "conditions": "for pest or weed control at 17.5 g/ha / pest or weed control at 35 g/ha / pest or weed control at 70 g/ha: post-emergence, 504 h, postemergence; for pest or weed control at 17.5 g/ha: 17.5 g ai/ha; for pest or weed control at 35 g/ha: 35 g ai/ha; for pest or weed control at 70 g/ha: 70 g ai/ha", "summary_of_the_method": "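Rice and weeds grown in loam–sand soil (pH about 8.1) in greenhouse to 2nd–3rd true leaf, then sprayed postemergence at 187 L/ha in acetone/DMSO with 1.25% (v/v) Agri-dex crop oil. Injury rated visually 0–100 after 20-22 days versus untreated plants; GR20, GR50, GR80, GR90 obtained by probit analysis across dose rates.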", "key": {"[1]": {"conditions": "BRAPP (broadleaf signalgrass, Brachiaria platyphylla), read-out: Visual Growth Reduction (%) 21 Days After Application BRAPP"}, "[2]": {"conditions": "CYPDI (small-flower flatsedge, Cyperus difformis), read-out: Visual Growth Reduction (%) 21 Days After Application CYPDI"}, "[3]": {"conditions": "CYPES (yellow nutsedge, Cyperus esculentus), read-out: Visual Growth Reduction (%) 21 Days After Application CYPES"}, "[4]": {"conditions": "CYPIR (rice flatsedge, Cyperus iria), read-out: Visual Growth Reduction (%) 21 Days After Application CYPIR"}, "[5]": {"conditions": "DIGSA (large crabgrass, Digitaria sanguinalis), read-out: Visual Growth Reduction (%) 21 Days After Application DIGSA"}, "[6]": {"conditions": "ECHCG (barnyardgrass, Echinochloa crus-galli), read-out: Visual Growth Reduction (%) 21 Days After Application ECHCG"}, "[7]": {"conditions": "ECHCO (junglerice, Echinochloa colonum), read-out: Visual Growth Reduction (%) 21 Days After Application ECHCO"}, "[8]": {"conditions": "LEFCH (Chinese sprangletop, Leptochloa chinensis), read-out: Visual Growth Reduction (%) 21 Days After Application LEFCH"}, "[9]": {"conditions": "ORYSJ (Oryza sativa, rice crop), read-out: Visual Growth Reduction (%) 21 Days After Application ORYSJ"}, "[10]": {"conditions": "ORYSK (Oryza sativa, rice crop), read-out: Visual Growth Reduction (%) 21 Days After Application ORYSK"}, "[11]": {"conditions": "SCPJU (Japanese bulrush, Schoenoplectus juncoides Roxb.), read-out: Visual Growth Reduction (%) 21 Days After Application SCPJU"}, "[12]": {"conditions": "SEBEX (hemp sesbania, Sesbania exaltata), given as number, read-out: Visual Growth Reduction (%) 21 Days After Application SEBEX"}}, "note": "Where two headings read alike, the source gives them in different places.", "data": [{"smiles": "Nc1c(F)c(-c2cc3c(cc2F)OC(F)(F)O3)nc(C(=O)O)c1Cl", "note": "[Compound 13]", "values": [{"measurement": "GR50 BRAPP", "setting": "BRAPP (Brachiaria platyphylla), probit analysis, dose for 50 percent growth reduction", "result": 3, "unit": "g ai/ha"}, {"measurement": "GR80 BRAPP", "setting": "BRAPP (Brachiaria platyphylla), probit analysis, dose for 80 percent growth reduction", "result": 5, "unit": "g ai/ha"}, {"measurement": "GR90 BRAPP", "setting": "BRAPP (Brachiaria platyphylla), probit analysis, dose for 90 percent growth reduction", "result": 7, "unit": "g ai/ha"}, {"measurement": "GR50 CYPDI", "setting": "CYPDI (Cyperus difformis), probit analysis, dose for 50 percent growth reduction", "result": 0.04, "unit": "g ai/ha"}, {"measurement": "GR80 CYPDI", "setting": "CYPDI (Cyperus difformis), probit analysis, dose for 80 percent growth reduction", "result": 1, "unit": "g ai/ha"}, {"measurement": "GR90 CYPDI", "setting": "CYPDI (Cyperus difformis), probit analysis, dose for 90 percent growth reduction", "result": 2, "unit": "g ai/ha"}, {"measurement": "GR50 CYPES", "setting": "CYPES (Cyperus esculentus), probit analysis, dose for 50 percent growth reduction", "result": 0.04, "unit": "g ai/ha"}, {"measurement": "GR50 CYPIR", "setting": "CYPIR (Cyperus iria), probit analysis, dose for 50 percent growth reduction", "result": 0.04, "unit": "g ai/ha"}, {"measurement": "GR50 DIGSA", "setting": "DIGSA (Digitaria sanguinalis), probit analysis, dose for 50 percent growth reduction", "result": 0.05, "unit": "g ai/ha"}, {"measurement": "GR80 DIGSA", "setting": "DIGSA (Digitaria sanguinalis), probit analysis, dose for 80 percent growth reduction", "result": 1, "unit": "g ai/ha"}, {"measurement": "GR90 DIGSA", "setting": "DIGSA (Digitaria sanguinalis), probit analysis, dose for 90 percent growth reduction", "result": 6, "unit": "g ai/ha"}, {"measurement": "GR50 ECHCG", "setting": "ECHCG (Echinochloa crus-galli), probit analysis, dose for 50 percent growth reduction", "result": 0.01, "unit": "g ai/ha"}, {"measurement": "GR80 ECHCG", "setting": "ECHCG (Echinochloa crus-galli), probit analysis, dose for 80 percent growth reduction", "result": 1, "unit": "g ai/ha"}, {"measurement": "GR90 ECHCG", "setting": "ECHCG (Echinochloa crus-galli), probit analysis, dose for 90 percent growth reduction", "result": 10, "unit": "g ai/ha"}, {"measurement": "GR50 ECHCO", "setting": "ECHCO (Echinochloa colonum), probit analysis, dose for 50 percent growth reduction", "result": 1, "unit": "g ai/ha"}, {"measurement": "GR80 ECHCO", "setting": "ECHCO (Echinochloa colonum), probit analysis, dose for 80 percent growth reduction", "result": 3, "unit": "g ai/ha"}, {"measurement": "GR90 ECHCO", "setting": "ECHCO (Echinochloa colonum), probit analysis, dose for 90 percent growth reduction", "result": 6, "unit": "g ai/ha"}, {"measurement": "GR50 LEFCH", "setting": "LEFCH (Leptochloa chinensis), probit analysis, dose for 50 percent growth reduction", "result": 14, "unit": "g ai/ha"}, {"measurement": "GR80 LEFCH", "setting": "LEFCH (Leptochloa chinensis), probit analysis, dose for 80 percent growth reduction", "result": 25, "unit": "g ai/ha"}, {"measurement": "GR90 LEFCH", "setting": "LEFCH (Leptochloa chinensis), probit analysis, dose for 90 percent growth reduction", "result": 33, "unit": "g ai/ha"}, {"measurement": "GR20 ORYSJ", "setting": "ORYSJ (Oryza sativa, rice crop), probit analysis, dose for 20 percent growth reduction", "result": 6, "unit": "g ai/ha"}, {"measurement": "GR20 ORYSK", "setting": "ORYSK (Oryza sativa, rice crop), probit analysis, dose for 20 percent growth reduction", "result": 15, "unit": "g ai/ha"}, {"measurement": "GR50 SCPJU", "setting": "SCPJU (Schoenoplectus juncoides Roxb.), probit analysis, dose for 50 percent growth reduction", "result": 0.0001, "unit": "g ai/ha"}, {"measurement": "GR80 SCPJU", "setting": "SCPJU (Schoenoplectus juncoides Roxb.), probit analysis, dose for 80 percent growth reduction", "result": 0.0001, "unit": "g ai/ha"}, {"measurement": "GR90 SCPJU", "setting": "SCPJU (Schoenoplectus juncoides Roxb.), probit analysis, dose for 90 percent growth reduction", "result": 0.0001, "unit": "g ai/ha"}, {"measurement": "GR50 SEBEX", "setting": "SEBEX (Sesbania exaltata), probit analysis, dose for 50 percent growth reduction", "result": 11, "unit": "g ai/ha"}, {"measurement": "GR80 SEBEX", "setting": "SEBEX (Sesbania exaltata), probit analysis, dose for 80 percent growth reduction", "result": 16, "unit": "g ai/ha"}, {"measurement": "GR90 SEBEX", "setting": "SEBEX (Sesbania exaltata), probit analysis, dose for 90 percent growth reduction", "result": 20, "unit": "g ai/ha"}, {"measurement": "pest or weed control at 17.5 g/ha", "setting": "[1]", "result": "95 to 100", "unit": "%"}, {"measurement": "pest or weed control at 35 g/ha", "setting": "[1]", "result": "95 to 100", "unit": "%"}, {"measurement": "pest or weed control at 70 g/ha", "setting": "[1]", "result": "95 to 100", "unit": "%"}, {"measurement": "pest or weed control at 17.5 g/ha", "setting": "[2]", "result": "95 to 100", "unit": "%"}, {"measurement": "pest or weed control at 35 g/ha", "setting": "[2]", "result": "95 to 100", "unit": "%"}, {"measurement": "pest or weed control at 70 g/ha", "setting": "[2]", "result": "95 to 100", "unit": "%"}, {"measurement": "pest or weed control at 17.5 g/ha", "setting": "[3]", "result": "95 to 100", "unit": "%"}, {"measurement": "pest or weed control at 35 g/ha", "setting": "[3]", "result": "95 to 100", "unit": "%"}, {"measurement": "pest or weed control at 70 g/ha", "setting": "[3]", "result": "95 to 100", "unit": "%"}, {"measurement": "pest or weed control at 17.5 g/ha", "setting": "[4]", "result": "95 to 100", "unit": "%"}, {"measurement": "pest or weed control at 35 g/ha", "setting": "[4]", "result": "95 to 100", "unit": "%"}, {"measurement": "pest or weed control at 70 g/ha", "setting": "[4]", "result": "95 to 100", "unit": "%"}, {"measurement": "pest or weed control at 17.5 g/ha", "setting": "[5]", "result": "95 to 100", "unit": "%"}, {"measurement": "pest or weed control at 35 g/ha", "setting": "[5]", "result": "95 to 100", "unit": "%"}, {"measurement": "pest or weed control at 70 g/ha", "setting": "[5]", "result": "95 to 100", "unit": "%"}, {"measurement": "pest or weed control at 17.5 g/ha", "setting": "[6]", "result": "95 to 100", "unit": "%"}, {"measurement": "pest or weed control at 35 g/ha", "setting": "[6]", "result": "85 to 94", "unit": "%"}, {"measurement": "pest or weed control at 70 g/ha", "setting": "[6]", "result": "95 to 100", "unit": "%"}, {"measurement": "pest or weed control at 17.5 g/ha", "setting": "[7]", "result": "95 to 100", "unit": "%"}, {"measurement": "pest or weed control at 35 g/ha", "setting": "[7]", "result": "95 to 100", "unit": "%"}, {"measurement": "pest or weed control at 70 g/ha", "setting": "[7]", "result": "95 to 100", "unit": "%"}, {"measurement": "pest or weed control at 17.5 g/ha", "setting": "[8]", "result": "60 to 74", "unit": "%"}, {"measurement": "pest or weed control at 35 g/ha", "setting": "[8]", "result": "95 to 100", "unit": "%"}, {"measurement": "pest or weed control at 70 g/ha", "setting": "[8]", "result": "95 to 100", "unit": "%"}, {"measurement": "pest or weed control at 17.5 g/ha", "setting": "[9]", "result": "45 to 59", "unit": "%"}, {"measurement": "pest or weed control at 35 g/ha", "setting": "[9]", "result": "85 to 94", "unit": "%"}, {"measurement": "pest or weed control at 70 g/ha", "setting": "[9]", "result": "95 to 100", "unit": "%"}, {"measurement": "pest or weed control at 17.5 g/ha", "setting": "[10]", "result": "0 to 29", "unit": "%"}, {"measurement": "pest or weed control at 35 g/ha", "setting": "[10]", "result": "45 to 59", "unit": "%"}, {"measurement": "pest or weed control at 70 g/ha", "setting": "[10]", "result": "60 to 74", "unit": "%"}, {"measurement": "pest or weed control at 17.5 g/ha", "setting": "[11]", "result": "95 to 100", "unit": "%"}, {"measurement": "pest or weed control at 35 g/ha", "setting": "[11]", "result": "95 to 100", "unit": "%"}, {"measurement": "pest or weed control at 70 g/ha", "setting": "[11]", "result": "95 to 100", "unit": "%"}, {"measurement": "pest or weed control at 17.5 g/ha", "setting": "[12]", "result": 95, "unit": "%"}, {"measurement": "pest or weed control at 35 g/ha", "setting": "[12]", "result": 100, "unit": "%"}, {"measurement": "pest or weed control at 70 g/ha", "setting": "[12]", "result": 100, "unit": "%"}]}]}
